Publication PMC4710668, “Bioactivation of food genotoxicants 5-hydroxymethylfurfural and furfuryl alcohol by sulfotransferases from human, mouse and rat: a comparative study” (Archives of Toxicology, 2014)

Tests used:
rSult2b1 = target: T1, rSult2b1 (Rattus norvegicus, UniProt Q29YR5); test: FFA sulfoconjugation assay (N6-MF-A formation with adenosine as scavenger); type: biochemical
T1 construct: made in house; host or cells: Salmonella typhimurium TA1538 (cytosolic fraction, enzyme not purified)
T1 sequence (Q29YR5 1-340): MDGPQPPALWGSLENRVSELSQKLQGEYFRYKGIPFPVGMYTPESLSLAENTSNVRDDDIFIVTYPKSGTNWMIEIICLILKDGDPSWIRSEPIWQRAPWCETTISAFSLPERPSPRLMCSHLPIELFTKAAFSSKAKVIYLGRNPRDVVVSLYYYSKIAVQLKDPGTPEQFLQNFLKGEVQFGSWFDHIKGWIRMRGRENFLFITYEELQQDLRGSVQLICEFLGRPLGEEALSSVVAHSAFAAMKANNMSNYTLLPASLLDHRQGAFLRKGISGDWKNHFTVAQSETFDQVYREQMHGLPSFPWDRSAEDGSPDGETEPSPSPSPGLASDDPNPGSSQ
Method in brief: (§1)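 SULT-containing cytosols from transgenic S. typhimurium TA1538 were incubated with FFA and 10 mM adenosine as nucleophilic scavenger for 20 min at 37 °C. N6-MF-A adducts were quantified by isotope-dilution UPLC-MS/MS ([15N5]N6-MF-A internal standard). Adduct formed in SULT-deficient cytosol controls was subtracted.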

hSULT1A3 = target: T2, hSULT1A3 (Homo sapiens, UniProt P0DMM9); test: as above; type: biochemical
T2 construct: made in house; host or cells: Salmonella typhimurium TA1538 (cytosolic fraction, not purified)
Method in brief: as §1

male B6C3F1 mice = conditions: 32 ppm FFA in the air (equivalent to 60 mg FFA/kg bw/day), ref National Toxicology Program [1999]; cited from earlier work

T2 sequence (P0DMM9 whole entry): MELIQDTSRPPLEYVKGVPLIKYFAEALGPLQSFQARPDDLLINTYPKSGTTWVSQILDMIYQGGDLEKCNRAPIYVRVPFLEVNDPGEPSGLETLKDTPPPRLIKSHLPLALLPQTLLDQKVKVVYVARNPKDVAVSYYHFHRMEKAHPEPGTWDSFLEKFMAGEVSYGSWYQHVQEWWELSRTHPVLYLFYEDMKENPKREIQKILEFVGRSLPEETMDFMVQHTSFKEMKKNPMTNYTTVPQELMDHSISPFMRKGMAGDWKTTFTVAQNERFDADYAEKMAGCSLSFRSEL

OCc1ccco1 [FFA, furfuryl alcohol]
Rate of N6-MF-A formation (rSult2b1; 0.1 mM FFA): <18 fmol N ^6-MF-A/mg/min | Rate of N6-MF-A formation (rSult2b1; 1 mM FFA): <20 fmol N ^6-MF-A/mg/min | Rate of N6-MF-A formation (rSult2b1; 10 mM FFA): <44 fmol N ^6-MF-A/mg/min | Rate of N6-MF-A formation (hSULT1A3; 1 mM FFA): 27.3 ± 0.5 fmol N ^6-MF-A/mg/min | Rate of N6-MF-A formation (corr.) (hSULT1A3; 1 mM FFA, corrected by actual SULT concentration in the cytosolic preparation): 1,950 ± 30 fmol N ^6-MF-A/mg/min | Rate of N6-MF-A formation (hSULT1A3; 10 mM FFA): 226 ± 3 fmol N ^6-MF-A/mg/min | carcinogenic effect (male B6C3F1 mice): induced renal tubule neoplasms
